Results on 16 compounds are retold here after patent US11667651B2, “Aminopyridine derivatives as phosphatidylinositol phosphate kinase inhibitors” (HiberCell, Inc., priority 2017, dated 2023).

SMILES strings stand for the structures.

In one experiment the target is T1, PIP4K2B (Homo sapiens, UniProt P78356).
T1 construct: made in house; host or cells: E. coli
T1 sequence (P78356 1-416): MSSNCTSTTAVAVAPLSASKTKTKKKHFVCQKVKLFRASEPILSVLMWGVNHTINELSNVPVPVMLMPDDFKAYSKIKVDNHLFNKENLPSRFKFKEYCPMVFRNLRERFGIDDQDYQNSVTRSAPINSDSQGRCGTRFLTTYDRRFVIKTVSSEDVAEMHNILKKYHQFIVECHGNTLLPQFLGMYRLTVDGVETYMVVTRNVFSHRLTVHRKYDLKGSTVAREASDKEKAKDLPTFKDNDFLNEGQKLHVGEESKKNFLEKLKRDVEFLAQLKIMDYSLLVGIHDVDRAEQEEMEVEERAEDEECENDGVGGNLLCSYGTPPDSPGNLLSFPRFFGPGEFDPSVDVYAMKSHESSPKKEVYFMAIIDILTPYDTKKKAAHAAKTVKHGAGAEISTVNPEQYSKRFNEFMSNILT
Description: Trans-FI P kinase assay PIP4K2B (Table 4). The format is biochemical. The following applies: compounds listed under IC50 bins; read-out: Trans-FI P kinase assays: PIP4K2B IC50. The text has this:
GST tagged PIP4KtypeIIA and B enzymes were overexpressed in E. Coli and purified to >80% homogeneity. Phosphatidyl inositol-5-phosphate (PI5P, Cat. #850152, Avanti Polar Lipids Inc.) was used as the lipid substrate and phosphatidyl ethanolamine (DOPE 18:1, Cat. #850725, Avanti Polar Lipids Inc.) was used as the carrier lipid for assays. Ultrapure ATP and GTP was purchased from Bellbrooke Labs. ADP Glo reagents were obtained from Promega. Transcreener FI reagent was obtained from Bellbrooke labs.
GST-tagged PIP4KtypeIIB (3.4 μL, 2.77 mg/mL) was diluted to 5 mL using HNE buffer to yield 5× enzyme stock (25 nM)
Lipid Preparation: In a 10 mL pyrex glass vial, […] were suspended in 2.5 mL of HEPES buffer mix and 2.5 mL of H:E buffer. The contents were mixed and sonicated for 3 min to yield a translucent lipid stock.
Compound Preparation: Compounds were stored as 5 mM stocks in neat DMSO as room temperature in glass vials. 5 mM stocks were diluted to 2 mM and then serially diluted (3×) in neat DMSO in 96 well polypropylene plates. From the serially diluted stocks, 3 μL was delivered into 250 μL of 25% DMSO (in water) to generate 5× compound stocks. Typically, the highest compound conc. was 24 μM.
The assay volume was kept at 25 μL. To each well of the reaction plate, 10 μL of lipid stock (1:1 ratio PI5P:DOPE) was delivered. This was followed by the addition of 5 μL of compound in 25% DMSO. Then, to each well, 5 μL of 25 nM (5×) typeIIB enzyme was delivered. The contents were mixed well and incubated for 1 h at 27° C. After 1 h, reaction was initiated by adding 5 μL of 500 μM GTP and the contents were mixed well with a multi-channel pipetteman. The final concentration of the reagents are as follows: 50 mM HEPES, pH 7.3, 10 mM MgCl2, 20 mM NaCl, 0.01% v/v triton-X100, 5% DMSO, 100 μM GTP, 80 μM (2 μg) PI5P, 2 μg DOPE, and 5 nM PIP4KIIB Typically, the highest conc. of compounds was 4.8 μM and the lowest conc. was 0.
After 2 h, the reaction was quenched by adding 25 μL of transcreener FI reagent. The contents were incubated at rt for 1 h and the Fluorescence (Ex: 584 Em: 623) was read using Molecular Devices Paradigm plate reader. […] The blanks were averaged and subtracted from all other wells. Using a calibration curve, RFU was converted to μM GDP (product). IC50 was calculated by plotting the residual activity (expressed as % No inhibitor control) vs. log [Inh. conc.]

The next experiment concerns the target T2, PIP4K2A (Homo sapiens, UniProt P48426).
T2 sequence (P48426 1-406): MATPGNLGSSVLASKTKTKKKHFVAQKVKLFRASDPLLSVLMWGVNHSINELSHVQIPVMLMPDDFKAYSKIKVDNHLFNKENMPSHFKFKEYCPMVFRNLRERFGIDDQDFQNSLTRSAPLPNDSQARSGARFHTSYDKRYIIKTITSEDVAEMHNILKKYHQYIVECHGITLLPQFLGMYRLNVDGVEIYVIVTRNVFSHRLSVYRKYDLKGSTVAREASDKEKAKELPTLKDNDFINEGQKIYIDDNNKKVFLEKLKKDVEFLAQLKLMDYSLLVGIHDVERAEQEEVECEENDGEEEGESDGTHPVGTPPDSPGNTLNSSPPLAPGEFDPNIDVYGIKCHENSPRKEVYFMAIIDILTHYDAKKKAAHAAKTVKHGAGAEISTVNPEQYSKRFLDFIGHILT
In words: Kinase Assay PIP4K2 A (Table 2). The format is biochemical. Also noted: 4 nM PIP4K2A (full length protein, SignalChem); purchased SignalChem. Particulars: compounds listed under IC50 bins. An outline of the steps: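 ADP-Glo luminescent read-out after 1 h room-temperature kinase reaction, started with 60 μM ATP solution following 15 min compound pre-incubation. Enzyme/substrate mix: 4 nM full-length PIP4K2A plus 100 μM PI(5)P diC8; buffer MOPS pH 7.2 with 25 mM MgCl2 and Tween 20. IC50 from 10-point, 3-fold titrations normalized to DMSO.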

Take `O=C(COc1cccc2c1C(=O)N(C1CCC(=O)NC1=O)C2=O)NCCCC(=O)Nc1ccc(C(=O)Nc2cncc(Nc3ccc(-c4ccc(N5CCCC5=O)cc4)cn3)c2)cc1` (centres unmarked) [Example 292, 4-(4-(2-((2-(2,6-dioxopiperidin-3-yl)-1,3-dioxoisoindolin-4-yl)oxy)acetamido)butanamido)-N-(5-((5-(4-(2-oxopyrrolidin-1-yl)phenyl)pyridin-2-yl)amino)pyridin-3-yl)benzamide]: the IC50 lay in the range of 10 to 100 nM at PIP4K2B and 100 to 1000 nM at PIP4K2A.

In the case of `CC(C)c1nc(Nc2cnc3c(c2)N2C(=O)CC[C@H]2CO3)ncc1-c1ccc(N2CCCC2=O)cc1` [Example 215, (S)-2-((4-isopropyl-5-(4-(2-oxopyrrolidin-1-yl)phenyl)pyrimidin-2-yl)amino)-6,6a,7,8-tetrahydro-9H-pyrido[2,3-b]pyrrolo[1,2-d][1,4]oxazin-9-one], the results for the IC50 on PIP4K2B and against PIP4K2A were 1 to 10 nM and at most 1 nM, respectively.

Take `Cc1cnoc1-c1ccc(-c2ccc(Nc3cnc4c(c3)N3C(=O)CC[C@H]3CO4)nc2)cc1` [Example 277, (S)-2-((5-(4-(4-methylisoxazol-5-yl)phenyl)pyridin-2-yl)amino)-6,6a,7,8-tetrahydro-9H-pyrido[2,3-b]pyrrolo[1,2-d][1,4]oxazin-9-one]: the results for the IC50 on PIP4K2B and against PIP4K2A were 10 to 100 nM and 1 to 10 nM, respectively.

With `Cn1cnnc1N1CC=C(c2ccc(Nc3cnc4c(c3)N3C(=O)CC[C@H]3CO4)nc2)CC1` [Example 274, (S)-2-((1′-(4-methyl-4H-1,2,4-triazol-3-yl)-1′,2′,3′,6′-tetrahydro-[3,4′-bipyridin]-6-yl)amino)-6,6a,7,8-tetrahydro-9H-pyrido[2,3-b]pyrrolo[1,2-d][1,4]oxazin-9-one], the IC50 was 10 to 100 nM on PIP4K2B and 100 to 1000 nM against PIP4K2A.

Regarding `Cn1cnnc1-c1ccc(-c2ccc(Nc3cnc4c(c3)N3C(=O)CC[C@H]3CO4)nc2)cc1` [Example 291, (S)-2-((5-(4-(4-methyl-4H-1,2,4-triazol-3-yl)phenyl)pyridin-2-yl)amino)-6,6a,7,8-tetrahydro-9H-pyrido[2,3-b]pyrrolo[1,2-d][1,4]oxazin-9-one], the IC50 on PIP4K2B and against PIP4K2A was 10 to 100 nM each time.

For `CN(C)C(=O)c1ccc(-c2ccc(Nc3cncc(N)c3)nc2)cc1` [Example 115, 4-(6-((5-aminopyridin-3-yl)amino)pyridin-3-yl)-N,N-dimethylbenzamide], the half-inhibitory concentration (IC50) at PIP4K2B was above 1000 nM; on PIP4K2A, 100 to 1000 nM.

Consider `CC(C)Cn1cnnc1-c1ccc(-c2ccc(Nc3cnc4c(c3)N3C(=O)CC[C@H]3CO4)nc2)cc1` [Example 297, (S)-2-((5-(4-(4-isobutyl-4H-1,2,4-triazol-3-yl)phenyl)pyridin-2-yl)amino)-6,6a,7,8-tetrahydro-9H-pyrido[2,3-b]pyrrolo[1,2-d][1,4]oxazin-9-one], for which the IC50 at PIP4K2B and against PIP4K2A was 10 to 100 nM throughout.

Regarding `Cc1conc1-c1ccc(-c2ccc(Nc3cnc4c(c3)N3C(=O)CC[C@H]3CO4)nc2)cc1` [Example 283, (S)-2-((5-(4-(4-methylisoxazol-3-yl)phenyl)pyridin-2-yl)amino)-6,6a,7,8-tetrahydro-9H-pyrido[2,3-b]pyrrolo[1,2-d][1,4]oxazin-9-one], the IC50 at PIP4K2B fell in the range of 10 to 100 nM; against PIP4K2A it was 1 to 10 nM.

As for `CN(C)C(=O)c1ccc(-c2ccc(Nc3cnc4c(c3)N(C(=O)C3CC3)CCO4)nc2)cc1` [Example 90, 4-(6-((1-(cyclopropanecarbonyl)-2,3-dihydro-1H-pyrido[2,3-b][1,4]oxazin-7-yl)amino)pyridin-3-yl)-N,N-dimethylbenzamide], the IC50 on PIP4K2B lay within 10 to 100 nM; against PIP4K2A, 1 to 10 nM.

Regarding `Cn1cnnc1-c1ccc(-c2cnc(Nc3cnc4c(c3)N3C(=O)CC[C@H]3CO4)cc2C2CC2)cc1` [Example 285, (S)-2-((4-cyclopropyl-5-(4-(4-methyl-4H-1,2,4-triazol-3-yl)phenyl)pyridin-2-yl)amino)-6,6a,7,8-tetrahydro-9H-pyrido[2,3-b]pyrrolo[1,2-d][1,4]oxazin-9-one], the 50% inhibitory concentration (IC50) at PIP4K2B and at PIP4K2A was 10 to 100 nM throughout.

`Cn1cnnc1N1CCN(c2ccc(Nc3cnc4c(c3)N3C(=O)CC[C@H]3CO4)nc2)CC1` [Example 275, (S)-2-((5-(4-(4-methyl-4H-1,2,4-triazol-3-yl)piperazin-1-yl)pyridin-2-yl)amino)-6,6a,7,8-tetrahydro-9H-pyrido[2,3-b]pyrrolo[1,2-d][1,4]oxazin-9-one]: the figures for the half-inhibitory concentration (IC50) at PIP4K2B and at PIP4K2A were 10 to 100 nM and 100 to 1000 nM, respectively.

For `Cc1cnnn1-c1ccc(-c2ccc(Nc3cnc4c(c3)N3C(=O)CC[C@H]3CO4)nc2)cc1` [Example 289, (S)-2-((5-(4-(5-methyl-1H-1,2,3-triazol-1-yl)phenyl)pyridin-2-yl)amino)-6,6a,7,8-tetrahydro-9H-pyrido[2,3-b]pyrrolo[1,2-d][1,4]oxazin-9-one], the concentration for half-maximal inhibition (IC50) at PIP4K2B and on PIP4K2A was 1 to 10 nM throughout.

Consider `COc1nc(Nc2cnc3c(c2)N2C(=O)CC[C@H]2CO3)ncc1-c1ccc(-n2nncc2C)cc1` [Example 288, (S)-2-((4-methoxy-5-(4-(5-methyl-1H-1,2,3-triazol-1-yl)phenyl)pyrimidin-2-yl)amino)-6,6a,7,8-tetrahydro-9H-pyrido[2,3-b]pyrrolo[1,2-d][1,4]oxazin-9-one], for which the 50% inhibitory concentration (IC50) was 1 to 10 nM on PIP4K2B and at most 1 nM on PIP4K2A.

With `Cc1cnnn1-c1ccc(-c2cnc(Nc3cnc4c(c3)N3C(=O)CC[C@H]3CO4)nc2C(C)C)cc1` [Example 278, (S)-2-((4-isopropyl-5-(4-(5-methyl-1H-1,2,3-triazol-1-yl)phenyl)pyrimidin-2-yl)amino)-6,6a,7,8-tetrahydro-9H-pyrido[2,3-b]pyrrolo[1,2-d][1,4]oxazin-9-one], the IC50 on PIP4K2B is 1 to 10 nM; on PIP4K2A, at most 1 nM.

As to `CC(O)C(=O)N1CCOc2ncc(Nc3ccc(-c4ccc(C(=O)N(C)C)cc4)cn3)cc21` (centres unmarked) [Example 92, 4-(6-((1-(2-hydroxypropanoyl)-2,3-dihydro-1H-pyrido[2,3-b][1,4]oxazin-7-yl)amino)pyridin-3-yl)-N,N-dimethylbenzamide], the 50% inhibitory concentration (IC50) on PIP4K2B is 10 to 100 nM; against PIP4K2A, 1 to 10 nM.

`CC(=O)OC(C)C(=O)N1CCOc2ncc(Nc3ccc(-c4ccc(C(=O)N(C)C)cc4)cn3)cc21` (centres unmarked) [Example 91, 1-(7-((5-(4-(dimethylcarbamoyl)phenyl)pyridin-2-yl)amino)-2,3-dihydro-1H-pyrido[2,3-b][1,4]oxazin-1-yl)-1-oxopropan-2-yl acetate]: the IC50 at PIP4K2B and on PIP4K2A was 10 to 100 nM each time.
